Measured values taken from paper PMC12652428, “In Vitro and In Silico Evaluation of a Novel Multifunctional Cyclic Peptide with Antioxidant, Tyrosinase-Inhibitory, and Extracellular Matrix-Modulating Activities” (International Journal of Molecular Sciences, 2025).
Where a SMILES comes first, the peptide text is derived from it.

How the values were obtained:
[1] = molecular target: mushroom tyrosinase; assay: Tyrosinase inhibition assay; assay type: biochemical
Procedure: To assess tyrosinase inhibitory activity, serial dilutions of the synthesized peptide and the positive control, β-arbutin, were prepared. In a 96-well plate, 10 μL of sample solution was mixed with 110 μL of 0.10 M sodium phosphate buffer (pH 6.5), followed by the addition of 10 μL of mushroom tyrosinase solution (1500 U/mL) and 20 μL of 1.50 mM L-tyrosine. The reaction mixture was then incubated at 37 °C for 10 min. The absorbance was measured at an appropriate wavelength (475 nm) using a microplate reader and the percentage of tyrosinase inhibition was calculated using Equation (3).
Tyrosinase inhibition (%):(3) 100−b−b^′/a−a^′×100
(§1) a: Absorbance after reaction of stock solution.
(§2) b: Absorbance after reaction of sample solution.
a′, b′: Absorbance measured by substituting the buffer for mushroom tyrosinase.

[2] = DPPH radical-scavenging assay
Procedure: To assess the antioxidant activity of the test samples, serial dilutions of the synthesized peptides were prepared, using ascorbic acid as a positive control. Each reaction mixture consisted of 12.5 μL of the sample solution, 50 μL of ethanol, and 62.5 μL of 0.10 mM DPPH solution. The mixtures were incubated for 30 min at 4 °C in the dark. After the reaction, the absorbance was measured at 520 nm using a multimode microplate reader. The free radical-scavenging activity (%) was calculated using Equation (2).
Radical-scavenging activity (%):(2) 100−b−b^′/a−a^′×100
as §1, §2
a′, b′: Absorbance measured by substituting the buffer for 0.10 mM DPPH.

[3] = system: MMP-1; assay: UV-induced MMP-1 expression inhibition (ELISA) in human dermal fibroblasts CCD-986sk; assay type: cell-based
Procedure: To evaluate the inhibitory effect on MMP-1 expression, TGF-β1 (10 ng/mL) was used as the positive control. CCD-986sk cells were seeded into 24-well culture plates at a density of 1.5 × 10^4 cells/well and cultured for 24 h in IMDM supplemented with 10% FBS and 1% penicillin–streptomycin. The cells were then incubated in serum-free IMDM for 6 h to induce starvation, washed with 1 mL of DPBS, and irradiated with UV (5 J/cm^2). UV irradiation (5 J/cm^2) was performed under non-cytotoxic conditions previously reported to induce MMP-1 expression. The test samples were diluted in serum-free IMDM, applied to the cells, and incubated for 48 h.
MMP-1 Expression Inhibition (%):(4) 100−b/a×100
(§3) a: Expression of the corrected untreated group.
(§4) b: Expression of the corrected sample treatment group.
(§5) Protein content was measured using a Pierce BCA Protein Assay kit. After cell culture, 20 μL of the culture medium was mixed with 200 μL of the Pierce BCA Protein Assay reagent mixture and incubated at 37 °C for 30 min. The absorbance was then measured at 570 nm. The protein concentration was determined using an Albumin Standard as a reference.

[4] = system: type I procollagen; assay: Type I procollagen expression (ELISA) in human fibroblasts; assay type: cell-based
Procedure: ELISA was performed using a Type I Procollagen C-Peptide EIA Kit. Antibody-POD Conjugate solution (100 μL/well) was dispensed into the provided well strips, followed by the addition of 20 μL/well of standard solution or sample. After mixing, the plates were incubated at 37 °C for 3 h. Following incubation, the supernatants were discarded and wells were washed four times with wash buffer. Subsequently, 100 μL/well of Substrate Solution (TMBZ) was added and incubated at room temperature for 15 min, after which 100 μL/well of stop solution was added to terminate the reaction. Absorbance was measured at 450 nm using a multiplate reader. The expression levels of type I procollagen were compared and stimulation rate was calculated according to Equation (5).
Type I Procollagen Expression Promotion Rate (%):(5) 100−b/a×100
as §3, §4, §5

SMILES	tyrosinase inhibition IC50 (positive control) ([1]; tested 31.25 to 500 μg/mL, L-tyrosine substrate, pH 6.5, 37 °C, 10 min, 475 nm) [µg/mL]	tyrosinase inhibition rate ([1]; 800 μg/mL, L-tyrosine substrate, pH 6.5, 37 °C, 10 min, 475 nm) [%]	tyrosinase inhibition, concentration dependence ([1]; 12.50 to 800 μg/mL, p < 0.05)	tyrosinase inhibition compared with β-arbutin ([1]; comparable concentrations)	IC50 ([1]; n = 3, L-tyrosine substrate, pH 6.5, 37 °C, 10 min, 475 nm, molar value printed beside 104.2 µg/mL) [µM]	tyrosinase inhibition IC50 ([1]; n = 3, L-tyrosine substrate, pH 6.5, 37 °C, 10 min, 475 nm, tested 12.50 to 800 μg/mL) [µg/mL]	DPPH radical scavenging rate ([2]; 200 μg/mL, 30 min at 4 °C in the dark, 520 nm) [%]	DPPH scavenging, concentration dependence ([2]; 3.13 to 200 μg/mL, p < 0.05)	DPPH radical scavenging activity ([2]; concentrations above 25 μg/mL, 30 min at 4 °C in the dark, 520 nm)	inhibition of MMP-1 expression ([3]; 400 μg/mL, UV 5 J/cm^2, 48 h, CCD-986sk, ELISA, vs UV-treated control) [%]	MMP-1 inhibition compared with TGF-β1 ([3]; 400 µg/mL, same experimental conditions, TGF-β1 10 ng/mL)	UV-induced MMP-1 expression ([3]; 200–400 μg/mL, vs UV-treated control, p < 0.05)	MMP-1 expression inhibition IC50 ([3]; n = 5, UV 5 J/cm^2, 48 h, CCD-986sk, ELISA) [µg/mL]	type I procollagen expression, higher than positive control TGF-β1 ([4]; 400 μg/mL, compared with TGF-β1)	increase in type I procollagen expression vs untreated control ([4]; 400 μg/mL, human fibroblasts, ELISA (Procollagen Type I C-Peptide EIA), p < 0.05)	type I procollagen increase compared with TGF-β1 ([4]; 400 µg/mL, same experimental conditions)	type I procollagen expression ([4]; 100–400 μg/mL, p < 0.05)
OC[C@H]1O[C@@H](Oc2ccc(O)cc2)[C@H](O)[C@@H](O)[C@@H]1O [β-arbutin, reference compound]	160.12	–	–	–	–	–	–	–	–	–	–	–	–	–	–	–	–
N=C(N)NCCC[C@@H]1NC(=O)[C@H](CO)NC(=O)CNC(=O)[C@H](Cc2ccc(O)cc2)NC(=O)[C@H](CS)NC1=O [CR5, cyclic CYGSR] (cyclo(CYGSR))	–	97.79	concentration-dependent inhibition	stronger tyrosinase inhibition than β-arbutin	184 ± 9.4	104.2 ± 5.3	83.18	concentration-dependent scavenging effects	more than 50%	73.55	stronger efficacy than TGF-β1	significantly reduced MMP-1 expression	261.3 ± 12.0	approximately 30.12%	approximately 44.68%	stronger efficacy than TGF-β1	promoted type I procollagen expression in a concentration-dependent manner
